{"source": "ChEMBL document CHEMBL3352227", "about": "“Synthesis, antimycobacterial and antibacterial evaluation of l-[(1R, 2S)-2-fluorocyclopropyl]fluoroquinolone derivatives containing an oxime functional moiety” (Eur J Med Chem, 2014)", "data": [{"tested_on": "Klebsiella pneumoniae", "assay": "Antibacterial activity against Klebsiella pneumoniae 12-4 after 18 to 24 hrs by standard twofold serial dilution method", "assay_type": "functional", "units": {"MIC": "µg/mL"}, "values": [{"smiles": "CO/N=C1/CN(c2c(F)cc3c(=O)c(C(=O)O)cn([C@@H]4C[C@@H]4F)c3c2OC)[C@H]1CN", "MIC": 0.5}]}, {"tested_on": "Klebsiella pneumoniae", "assay": "Antibacterial activity against Klebsiella pneumoniae 12-2 after 18 to 24 hrs by standard twofold serial dilution method", "assay_type": "functional", "units": {"MIC": "µg/mL"}, "values": [{"smiles": "CO/N=C1/CN(c2c(F)cc3c(=O)c(C(=O)O)cn([C@@H]4C[C@@H]4F)c3c2OC)[C@H]1CN", "MIC": 0.5}]}, {"tested_on": "Staphylococcus epidermidis", "assay": "Antibacterial activity against methicillin-sensitive Staphylococcus epidermidis 12-8 after 18 to 24 hrs by standard twofold serial dilution method", "assay_type": "functional", "units": {"MIC": "µg/mL"}, "values": [{"smiles": "CO/N=C1/CN(c2c(F)cc3c(=O)c(C(=O)O)cn([C@@H]4C[C@@H]4F)c3c2OC)[C@H]1CN", "MIC": 2}]}, {"tested_on": "Staphylococcus epidermidis", "assay": "Antibacterial activity against methicillin-sensitive Staphylococcus epidermidis 12-6 after 18 to 24 hrs by standard twofold serial dilution method", "assay_type": "functional", "units": {"MIC": "µg/mL"}, "values": [{"smiles": "CO/N=C1/CN(c2c(F)cc3c(=O)c(C(=O)O)cn([C@@H]4C[C@@H]4F)c3c2OC)[C@H]1CN", "MIC": 0.125}]}, {"tested_on": "Escherichia coli", "assay": "Antibacterial activity against extended-spectrum beta-lactamase producing Escherichia coli 12-14 after 18 to 24 hrs by standard twofold serial dilution method", "assay_type": "functional", "units": {"MIC": "µg/mL"}, "values": [{"smiles": "CO/N=C1/CN(c2c(F)cc3c(=O)c(C(=O)O)cn([C@@H]4C[C@@H]4F)c3c2OC)[C@H]1CN", "MIC": 128}]}, {"tested_on": "Staphylococcus epidermidis", "assay": "Antibacterial activity against methicillin-sensitive Staphylococcus epidermidis 12-1 after 18 to 24 hrs by standard twofold serial dilution method", "assay_type": "functional", "units": {"MIC": "µg/mL"}, "values": [{"smiles": "CO/N=C1/CN(c2c(F)cc3c(=O)c(C(=O)O)cn([C@@H]4C[C@@H]4F)c3c2OC)[C@H]1CN", "MIC": 0.125}]}, {"tested_on": "Escherichia coli", "assay": "Antibacterial activity against extended-spectrum beta-lactamase producing Escherichia coli 12-15 after 18 to 24 hrs by standard twofold serial dilution method", "assay_type": "functional", "units": {"MIC": "µg/mL"}, "values": [{"smiles": "CO/N=C1/CN(c2c(F)cc3c(=O)c(C(=O)O)cn([C@@H]4C[C@@H]4F)c3c2OC)[C@H]1CN", "MIC": 64}]}, {"tested_on": "Klebsiella pneumoniae", "assay": "Antibacterial activity against extended-spectrum beta-lactamase producin Klebsiella pneumoniae 12-3 after 18 to 24 hrs by standard twofold serial dilution method", "assay_type": "functional", "units": {"MIC": "µg/mL"}, "values": [{"smiles": "CO/N=C1/CN(c2c(F)cc3c(=O)c(C(=O)O)cn([C@@H]4C[C@@H]4F)c3c2OC)[C@H]1CN", "MIC": 64}]}, {"tested_on": "Staphylococcus epidermidis", "assay": "Antibacterial activity against methicillin-sensitive Staphylococcus epidermidis 12-3 after 18 to 24 hrs by standard twofold serial dilution method", "assay_type": "functional", "units": {"MIC": "µg/mL"}, "values": [{"smiles": "CO/N=C1/CN(c2c(F)cc3c(=O)c(C(=O)O)cn([C@@H]4C[C@@H]4F)c3c2OC)[C@H]1CN", "MIC": 0.125}]}, {"tested_on": "Staphylococcus aureus", "assay": "Antibacterial activity against methicillin-resistant Staphylococcus aureus 12-4 after 18 to 24 hrs by standard twofold serial dilution method", "assay_type": "functional", "units": {"MIC": "µg/mL"}, "values": [{"smiles": "CO/N=C1/CN(c2c(F)cc3c(=O)c(C(=O)O)cn([C@@H]4C[C@@H]4F)c3c2OC)[C@H]1CN", "MIC": 8}]}, {"tested_on": "Pseudomonas aeruginosa", "assay": "Antibacterial activity against Pseudomonas aeruginosa 12-12 after 18 to 24 hrs by standard twofold serial dilution method", "assay_type": "functional", "units": {"MIC": "µg/mL"}, "values": [{"smiles": "CO/N=C1/CN(c2c(F)cc3c(=O)c(C(=O)O)cn([C@@H]4C[C@@H]4F)c3c2OC)[C@H]1CN", "MIC": 2}]}, {"tested_on": "Klebsiella pneumoniae", "assay": "Antibacterial activity against extended-spectrum beta-lactamase producin Klebsiella pneumoniae 12-7 after 18 to 24 hrs by standard twofold serial dilution method", "assay_type": "functional", "units": {"MIC": "µg/mL"}, "values": [{"smiles": "CO/N=C1/CN(c2c(F)cc3c(=O)c(C(=O)O)cn([C@@H]4C[C@@H]4F)c3c2OC)[C@H]1CN", "MIC": 2}]}, {"tested_on": "Klebsiella pneumoniae", "assay": "Antibacterial activity against extended-spectrum beta-lactamase producin Klebsiella pneumoniae 12-14 after 18 to 24 hrs by standard twofold serial dilution method", "assay_type": "functional", "units": {"MIC": "µg/mL"}, "values": [{"smiles": "CO/N=C1/CN(c2c(F)cc3c(=O)c(C(=O)O)cn([C@@H]4C[C@@H]4F)c3c2OC)[C@H]1CN", "MIC": 64}]}, {"tested_on": "Escherichia coli", "assay": "Antibacterial activity against Escherichia coli ATCC 25922 after 18 to 24 hrs by standard twofold serial dilution method", "assay_type": "functional", "units": {"MIC": "µg/mL"}, "values": [{"smiles": "CO/N=C1/CN(c2c(F)cc3c(=O)c(C(=O)O)cn([C@@H]4C[C@@H]4F)c3c2OC)[C@H]1CN", "MIC": 0.25}]}, {"tested_on": "Staphylococcus aureus", "assay": "Antibacterial activity against methicillin-sensitive Staphylococcus aureus 12-5 after 18 to 24 hrs by standard twofold serial dilution method", "assay_type": "functional", "units": {"MIC": "µg/mL"}, "values": [{"smiles": "CO/N=C1/CN(c2c(F)cc3c(=O)c(C(=O)O)cn([C@@H]4C[C@@H]4F)c3c2OC)[C@H]1CN", "MIC": 0.125}]}, {"tested_on": "Streptococcus pneumoniae", "assay": "Antibacterial activity against Streptococcus pneumoniae ATCC 49619 after 18 to 24 hrs by standard twofold serial dilution method", "assay_type": "functional", "units": {"MIC": "µg/mL"}, "values": [{"smiles": "CO/N=C1/CN(c2c(F)cc3c(=O)c(C(=O)O)cn([C@@H]4C[C@@H]4F)c3c2OC)[C@H]1CN", "MIC": 0.25}]}, {"tested_on": "Mycobacterium tuberculosis", "assay": "Antimycobacterial activity against Mycobacterium tuberculosis H37Rv ATCC 27294 by MABA method", "assay_type": "functional", "units": {"MIC": "µg/mL"}, "values": [{"smiles": "CO/N=C1/CN(c2c(F)cc3c(=O)c(C(=O)O)cn([C@@H]4C[C@@H]4F)c3c2OC)[C@H]1CN", "MIC": 0.5}]}, {"tested_on": "Staphylococcus aureus", "assay": "Antibacterial activity against methicillin-resistant Staphylococcus aureus 12-2 after 18 to 24 hrs by standard twofold serial dilution method", "assay_type": "functional", "units": {"MIC": "µg/mL"}, "values": [{"smiles": "CO/N=C1/CN(c2c(F)cc3c(=O)c(C(=O)O)cn([C@@H]4C[C@@H]4F)c3c2OC)[C@H]1CN", "MIC": 8}]}, {"tested_on": "Streptococcus pneumoniae", "assay": "Antibacterial activity against Streptococcus pneumoniae 12-18 after 18 to 24 hrs by standard twofold serial dilution method", "assay_type": "functional", "units": {"MIC": "µg/mL"}, "values": [{"smiles": "CO/N=C1/CN(c2c(F)cc3c(=O)c(C(=O)O)cn([C@@H]4C[C@@H]4F)c3c2OC)[C@H]1CN", "MIC": 2}]}, {"tested_on": "Klebsiella pneumoniae", "assay": "Antibacterial activity against extended-spectrum beta-lactamase producin Klebsiella pneumoniae 12-4 after 18 to 24 hrs by standard twofold serial dilution method", "assay_type": "functional", "units": {"MIC": "µg/mL"}, "values": [{"smiles": "CO/N=C1/CN(c2c(F)cc3c(=O)c(C(=O)O)cn([C@@H]4C[C@@H]4F)c3c2OC)[C@H]1CN", "MIC": 16}]}, {"tested_on": "Staphylococcus aureus", "assay": "Antibacterial activity against methicillin-sensitive Staphylococcus aureus 12-1 after 18 to 24 hrs by standard twofold serial dilution method", "assay_type": "functional", "units": {"MIC": "µg/mL"}, "values": [{"smiles": "CO/N=C1/CN(c2c(F)cc3c(=O)c(C(=O)O)cn([C@@H]4C[C@@H]4F)c3c2OC)[C@H]1CN", "MIC": 0.125}]}, {"tested_on": "Staphylococcus epidermidis", "assay": "Antibacterial activity against methicillin-resistant Staphylococcus epidermidis 12-6 after 18 to 24 hrs by standard twofold serial dilution method", "assay_type": "functional", "units": {"MIC": "µg/mL"}, "values": [{"smiles": "CO/N=C1/CN(c2c(F)cc3c(=O)c(C(=O)O)cn([C@@H]4C[C@@H]4F)c3c2OC)[C@H]1CN", "MIC": 2}]}, {"tested_on": "Klebsiella pneumoniae", "assay": "Antibacterial activity against Klebsiella pneumoniae 12-1 after 18 to 24 hrs by standard twofold serial dilution method", "assay_type": "functional", "units": {"MIC": "µg/mL"}, "values": [{"smiles": "CO/N=C1/CN(c2c(F)cc3c(=O)c(C(=O)O)cn([C@@H]4C[C@@H]4F)c3c2OC)[C@H]1CN", "MIC": 0.5}]}, {"tested_on": "Staphylococcus aureus", "assay": "Antibacterial activity against methicillin-sensitive Staphylococcus aureus 12-4 after 18 to 24 hrs by standard twofold serial dilution method", "assay_type": "functional", "units": {"MIC": "µg/mL"}, "values": [{"smiles": "CO/N=C1/CN(c2c(F)cc3c(=O)c(C(=O)O)cn([C@@H]4C[C@@H]4F)c3c2OC)[C@H]1CN", "MIC": 0.06}]}, {"tested_on": "Staphylococcus aureus", "assay": "Antibacterial activity against methicillin-resistant Staphylococcus aureus 12-5 after 18 to 24 hrs by standard twofold serial dilution method", "assay_type": "functional", "units": {"MIC": "µg/mL"}, "values": [{"smiles": "CO/N=C1/CN(c2c(F)cc3c(=O)c(C(=O)O)cn([C@@H]4C[C@@H]4F)c3c2OC)[C@H]1CN", "MIC": 4}]}, {"tested_on": "Escherichia coli", "assay": "Antibacterial activity against Escherichia coli 12-1 after 18 to 24 hrs by standard twofold serial dilution method", "assay_type": "functional", "units": {"MIC": "µg/mL"}, "values": [{"smiles": "CO/N=C1/CN(c2c(F)cc3c(=O)c(C(=O)O)cn([C@@H]4C[C@@H]4F)c3c2OC)[C@H]1CN", "MIC": 2}]}, {"tested_on": "Staphylococcus aureus", "assay": "Antibacterial activity against Staphylococcus aureus ATCC 25923 after 18 to 24 hrs by standard twofold serial dilution method", "assay_type": "functional", "units": {"MIC": "µg/mL"}, "values": [{"smiles": "CO/N=C1/CN(c2c(F)cc3c(=O)c(C(=O)O)cn([C@@H]4C[C@@H]4F)c3c2OC)[C@H]1CN", "MIC": "< 0.008"}]}, {"tested_on": "Pseudomonas aeruginosa", "assay": "Antibacterial activity against Pseudomonas aeruginosa 12-14 after 18 to 24 hrs by standard twofold serial dilution method", "assay_type": "functional", "units": {"MIC": "µg/mL"}, "values": [{"smiles": "CO/N=C1/CN(c2c(F)cc3c(=O)c(C(=O)O)cn([C@@H]4C[C@@H]4F)c3c2OC)[C@H]1CN", "MIC": 16}]}, {"tested_on": "Escherichia coli", "assay": "Antibacterial activity against extended-spectrum beta-lactamase producing Escherichia coli 12-3 after 18 to 24 hrs by standard twofold serial dilution method", "assay_type": "functional", "units": {"MIC": "µg/mL"}, "values": [{"smiles": "CO/N=C1/CN(c2c(F)cc3c(=O)c(C(=O)O)cn([C@@H]4C[C@@H]4F)c3c2OC)[C@H]1CN", "MIC": 32}]}, {"tested_on": "Staphylococcus aureus", "assay": "Antibacterial activity against methicillin-sensitive Staphylococcus aureus 12-2 after 18 to 24 hrs by standard twofold serial dilution method", "assay_type": "functional", "units": {"MIC": "µg/mL"}, "values": [{"smiles": "CO/N=C1/CN(c2c(F)cc3c(=O)c(C(=O)O)cn([C@@H]4C[C@@H]4F)c3c2OC)[C@H]1CN", "MIC": 0.125}]}, {"tested_on": "Staphylococcus epidermidis", "assay": "Antibacterial activity against methicillin-resistant Staphylococcus epidermidis 12-1 after 18 to 24 hrs by standard twofold serial dilution method", "assay_type": "functional", "units": {"MIC": "µg/mL"}, "values": [{"smiles": "CO/N=C1/CN(c2c(F)cc3c(=O)c(C(=O)O)cn([C@@H]4C[C@@H]4F)c3c2OC)[C@H]1CN", "MIC": 2}]}, {"tested_on": "Escherichia coli", "assay": "Antibacterial activity against extended-spectrum beta-lactamase producing Escherichia coli 12-2 after 18 to 24 hrs by standard twofold serial dilution method", "assay_type": "functional", "units": {"MIC": "µg/mL"}, "values": [{"smiles": "CO/N=C1/CN(c2c(F)cc3c(=O)c(C(=O)O)cn([C@@H]4C[C@@H]4F)c3c2OC)[C@H]1CN", "MIC": 64}]}]}
